# Experiments:
# [1] = Plasma concentration of propofol derived from the test prodrug in rats (Table I); format: in vivo; conditions: rat; for F_Cmax / F_AUCt: relative to 5 mg/kg IV; for AUCt / Cmax: propofol in plasma; for AUCt: 0-360 min
# Method: Upon administration, the test prodrug is converted in the body into propofol, its pharmacologically active metabolite. The pharmacokinetic profile, i.e. the blood plasma concentration of propofol derived from the test prodrug, was assessed in a separate experiment. Male Sprague-Dawley Rats (225-250 g) were obtained with indwelling jugular or intraduodenal catheters (Hilltop Labs, PA). On the day of testing, control blood samples were taken from the jugular vein prior to dosing. O-phosphonooxymethyl propofol disodium salt was then dosed in different concentrations in groups of 2-3 rats. The test prodrug was administered either by the oral, intravenous or intraduodenal routes. Blood samples (0.5 ml) were taken at 5, 15, 30, 45, 60, 120, 240 and 360 min after administration of the test prodrug. Blood samples were centrifuged to obtain plasma and stored frozen until analysis. The outcome of this experiment is depicted in the following table I:
# “Cmax” is the mean maximum plasma concentration; “F Cmax” is the calculated mean bioavailability of the Cmax for propofol generated from the tested prodrug (as administered via various routes and at various doses), relative to an intravenous dose of 5 mg/kg at Cmax; “AUCt” is the mean area under the curve from time 0 to the last measured time point (360 min); “F AUCt” is the calculated mean bioavailability for AUCt. “Bioavailability” is the quotient, expressed as per cent, of the Cmax or AUCt for intragastric (po) or intraduodenal (GB) administration, and the Cmax or AUCt for a 5 mg/kg intravenous dose, adjusted for dose. […] This transformation provides a reasonable measure to compare the systemic exposure to propofol generated from the test compound (after administration of various doses by various routes) to systemic propofol exposure after I.V. administration of the prodrug.
# [2] = Crossover study of plasma bioavailability of propofol in human volunteers after oral or intraduodenal prodrug (Table II); format: in vivo; conditions: for Blood plasma concentration of propofol, Mean / Blood plasma concentration of propofol, Median: human volunteers
# Source text: Blood plasma samples were drawn at various time points post administration and frozen until chromatographic analysis of propofol concentrations. Plasma propofol concentrations at various time points after administration are given for both routes of administration in Table II, below: […]
# [3] = ID (intraduodenal) 400 mg, 0.0 hr
# [4] = ID (intraduodenal) 400 mg, 0.08 hr
# [5] = ID (intraduodenal) 400 mg, 0.17 hr
# [6] = ID (intraduodenal) 400 mg, 0.33 hr
# [7] = ID (intraduodenal) 400 mg, 0.50 hr
# [8] = ID (intraduodenal) 400 mg, 0.75 hr
# [9] = ID (intraduodenal) 400 mg, 1.0 hr
# [10] = ID (intraduodenal) 400 mg, 1.5 hr
# [11] = ID (intraduodenal) 400 mg, 2.0 hr
# [12] = ID (intraduodenal) 400 mg, 4.0 hr
# [13] = ID (intraduodenal) 400 mg, 6.0 hr
# [14] = ID (intraduodenal) 400 mg, 9.0 hr
smiles,measurement,setting,value
CC(C)c1cccc(C(C)C)c1OCOP(=O)([O-])[O-].[Na+].[Na+] [O-phosphonooxymethyl propofol disodium salt],F_Cmax,[1]; Gb (intraduodenal) 1 mg/kg,14.4%
same,F_AUCt,[1]; Gb (intraduodenal) 3 mg/kg,9.34%
same,F_Cmax,[1]; Gb (intraduodenal) 3 mg/kg,27.3%
same,F_AUCt,[1]; Gb (intraduodenal) 10 mg/kg,27.4%
same,F_Cmax,[1]; Gb (intraduodenal) 10 mg/kg,35.0%
same,F_AUCt,[1]; Gb (intraduodenal) 30 mg/kg,55%
same,F_Cmax,[1]; Gb (intraduodenal) 30 mg/kg,74.0%
same,F_AUCt,[1]; Gb (intraduodenal) 100 mg/kg,161%
same,F_Cmax,[1]; Gb (intraduodenal) 100 mg/kg,102%
same,F_AUCt,[1]; I.V. 5 mg/kg,100%
same,F_Cmax,[1]; I.V. 5 mg/kg,100%
same,F_AUCt,[1]; I.V. 50 mg/kg,117.9%
same,F_Cmax,[1]; I.V. 50 mg/kg,86.7%
same,bioavailability of propofol liberated from the prodrug (in words),[1]; gastric bypass,markedly enhanced
same,F_AUCt,[1]; p.o. 20 mg/kg,13.3%
same,F_Cmax,[1]; p.o. 20 mg/kg,3.72%
same,F_AUCt,[1]; p.o. 50 mg/kg,22.2%
same,F_Cmax,[1]; p.o. 50 mg/kg,4.65%
same,F_Cmax,[1]; p.o. 100 mg/kg,9.20%
same,F_AUCt,"[1]; p.o. 100 mg/kg, disodium salt",53.2%
same,F_AUCt,"[1]; p.o. 100 mg/kg, listed as test compound, disodium salt",above 50%
same,"Cmax bioavailability of propofol (F Cmax, in words)","[1]; p.o. 20, 50 and 100 mg/kg",limited at all tested dose levels
same,AUCt,[1]; Gb (intraduodenal) 3 mg/kg,0.389 µg·min/mL
same,AUCt,[1]; Gb (intraduodenal) 10 mg/kg,3.81 µg·min/mL
same,AUCt,[1]; Gb (intraduodenal) 30 mg/kg,22.9 µg·min/mL
same,AUCt,[1]; Gb (intraduodenal) 100 mg/kg,223 µg·min/mL
same,AUCt,[1]; I.V. 5 mg/kg,6.94 µg·min/mL
same,AUCt,[1]; I.V. 50 mg/kg,81.8 µg·min/mL
same,AUCt,[1]; p.o. 20 mg/kg,3.70 µg·min/mL
same,AUCt,[1]; p.o. 50 mg/kg,15.4 µg·min/mL
same,AUCt,[1]; p.o. 100 mg/kg,73.8 µg·min/mL
same,Cmax,"[1]; Gb (gastric bypass, intraduodenal) 1 mg/kg",8.26 ng/mL
same,Cmax,[1]; Gb (intraduodenal) 3 mg/kg,46.8 ng/mL
same,Cmax,[1]; Gb (intraduodenal) 10 mg/kg,200 ng/mL
same,Cmax,[1]; Gb (intraduodenal) 30 mg/kg,1270 ng/mL
same,Cmax,[1]; Gb (intraduodenal) 100 mg/kg,5840 ng/mL
same,Cmax,[1]; I.V. 5 mg/kg,286 ng/mL
same,Cmax,[1]; I.V. 50 mg/kg,2480 ng/mL
same,Cmax,[1]; p.o. 20 mg/kg,42.6 ng/mL
same,Cmax,[1]; p.o. 50 mg/kg,133 ng/mL
same,Cmax,[1]; p.o. 100 mg/kg,526 ng/mL
same,"Blood plasma concentration of propofol, Mean",[2]; [3],0.0 ng/mL
same,"Blood plasma concentration of propofol, Median",[2]; [3],0.0 ng/mL
same,"Blood plasma concentration of propofol, Mean",[2]; [4],194.1 ng/mL
same,"Blood plasma concentration of propofol, Median",[2]; [4],144.5 ng/mL
same,"Blood plasma concentration of propofol, Mean",[2]; [5],247.6 ng/mL
same,"Blood plasma concentration of propofol, Median",[2]; [5],210.9 ng/mL
same,"Blood plasma concentration of propofol, Mean",[2]; [6],272.0 ng/mL
same,"Blood plasma concentration of propofol, Median",[2]; [6],277.3 ng/mL
same,"Blood plasma concentration of propofol, Mean",[2]; [7],178.6 ng/mL
same,"Blood plasma concentration of propofol, Median",[2]; [7],211.3 ng/mL
same,"Blood plasma concentration of propofol, Mean",[2]; [8],76.5 ng/mL
same,"Blood plasma concentration of propofol, Median",[2]; [8],52.3 ng/mL
same,"Blood plasma concentration of propofol, Mean",[2]; [9],47.7 ng/mL
same,"Blood plasma concentration of propofol, Median",[2]; [9],45.3 ng/mL
same,"Blood plasma concentration of propofol, Mean",[2]; [10],25.4 ng/mL
same,"Blood plasma concentration of propofol, Median",[2]; [10],24.7 ng/mL
same,"Blood plasma concentration of propofol, Mean",[2]; [11],16.4 ng/mL
same,"Blood plasma concentration of propofol, Median",[2]; [11],14.2 ng/mL
same,"Blood plasma concentration of propofol, Mean",[2]; [12],5.0 ng/mL
same,"Blood plasma concentration of propofol, Median",[2]; [12],5.6 ng/mL
same,"Blood plasma concentration of propofol, Mean",[2]; [13],0.0 ng/mL
same,"Blood plasma concentration of propofol, Median",[2]; [13],0.0 ng/mL
same,"Blood plasma concentration of propofol, Mean",[2]; [14],0.0 ng/mL
same,"Blood plasma concentration of propofol, Median",[2]; [14],0.0 ng/mL
same,"Blood plasma concentration of propofol, Mean","[2]; Oral 400 mg, 0.0 hr",0.0 ng/mL
same,"Blood plasma concentration of propofol, Median","[2]; Oral 400 mg, 0.0 hr",0.0 ng/mL
same,"Blood plasma concentration of propofol, Mean","[2]; Oral 400 mg, 0.08 hr",6.6 ng/mL
same,"Blood plasma concentration of propofol, Median","[2]; Oral 400 mg, 0.08 hr",0.0 ng/mL
same,"Blood plasma concentration of propofol, Mean","[2]; Oral 400 mg, 0.17 hr",103.9 ng/mL
same,"Blood plasma concentration of propofol, Median","[2]; Oral 400 mg, 0.17 hr",43.6 ng/mL
same,"Blood plasma concentration of propofol, Mean","[2]; Oral 400 mg, 0.33 hr",197.2 ng/mL
same,"Blood plasma concentration of propofol, Median","[2]; Oral 400 mg, 0.33 hr",153.6 ng/mL
same,"Blood plasma concentration of propofol, Mean","[2]; Oral 400 mg, 0.50 hr",144.1 ng/mL
same,"Blood plasma concentration of propofol, Median","[2]; Oral 400 mg, 0.50 hr",151.4 ng/mL
same,"Blood plasma concentration of propofol, Mean","[2]; Oral 400 mg, 0.75 hr",75.0 ng/mL
same,"Blood plasma concentration of propofol, Median","[2]; Oral 400 mg, 0.75 hr",71.1 ng/mL
same,"Blood plasma concentration of propofol, Mean","[2]; Oral 400 mg, 1.0 hr",53.2 ng/mL
same,"Blood plasma concentration of propofol, Median","[2]; Oral 400 mg, 1.0 hr",37.6 ng/mL
same,"Blood plasma concentration of propofol, Mean","[2]; Oral 400 mg, 1.5 hr",32.3 ng/mL
same,"Blood plasma concentration of propofol, Median","[2]; Oral 400 mg, 1.5 hr",22.8 ng/mL
same,"Blood plasma concentration of propofol, Mean","[2]; Oral 400 mg, 2.0 hr",19.0 ng/mL
same,"Blood plasma concentration of propofol, Median","[2]; Oral 400 mg, 2.0 hr",18.8 ng/mL
same,"Blood plasma concentration of propofol, Mean","[2]; Oral 400 mg, 4.0 hr",6.2 ng/mL
same,"Blood plasma concentration of propofol, Median","[2]; Oral 400 mg, 4.0 hr",6.6 ng/mL
same,"Blood plasma concentration of propofol, Mean","[2]; Oral 400 mg, 6.0 hr",0.9 ng/mL
same,"Blood plasma concentration of propofol, Median","[2]; Oral 400 mg, 6.0 hr",0.0 ng/mL
same,"Blood plasma concentration of propofol, Mean","[2]; Oral 400 mg, 9.0 hr",0.9 ng/mL
same,"Blood plasma concentration of propofol, Median","[2]; Oral 400 mg, 9.0 hr",0.0 ng/mL
same,plasma propofol after intraduodenal instillation compared to oral (in words),"[2]; intraduodenal 400 mg, human subjects","appreciably higher levels, and at earlier timepoints"
same,plasma propofol after oral administration (in words),"[2]; oral 400 mg, human subjects",appreciable plasma concentrations of propofol
same,plasma propofol concentrations above the upper limit of quantification,"[2]; some values from four of the subjects, second, third and fourth timepoints, 400 mg",> 400 ng/mL
